Measurements as given in article PMC9516332 (Frontiers in Oncology, 2022).

Tests used:
Test in all cases: Kinase panel profiling at 1 µmol/L (MSA or IMAP), percentage inhibition
Type in all cases: biochemical
[1] = target: T1, panel of 255 wild-type kinases (Homo sapiens, UniProt O15264); settings: p38δ; 1 µmol/L single concentration; read-out: %-inhibition, p38δ
T1 sequence (O15264 1-365): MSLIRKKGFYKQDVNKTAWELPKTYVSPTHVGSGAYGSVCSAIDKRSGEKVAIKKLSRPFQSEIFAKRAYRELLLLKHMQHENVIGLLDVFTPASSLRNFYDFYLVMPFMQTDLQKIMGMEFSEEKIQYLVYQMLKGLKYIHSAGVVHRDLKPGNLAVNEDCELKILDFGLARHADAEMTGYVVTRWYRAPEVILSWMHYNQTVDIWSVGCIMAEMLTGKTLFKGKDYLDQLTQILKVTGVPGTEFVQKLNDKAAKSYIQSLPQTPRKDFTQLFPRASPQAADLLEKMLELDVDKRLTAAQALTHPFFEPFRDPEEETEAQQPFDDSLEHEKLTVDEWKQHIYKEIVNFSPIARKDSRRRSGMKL

[2] = target: T2, panel of 255 wild-type kinases (Homo sapiens, UniProt P15735); settings: kinase PHKG2; 1 µmol/L single concentration; read-out: %-inhibition at 1 µmol/L, PHKG2
T2 sequence (P15735 1-406): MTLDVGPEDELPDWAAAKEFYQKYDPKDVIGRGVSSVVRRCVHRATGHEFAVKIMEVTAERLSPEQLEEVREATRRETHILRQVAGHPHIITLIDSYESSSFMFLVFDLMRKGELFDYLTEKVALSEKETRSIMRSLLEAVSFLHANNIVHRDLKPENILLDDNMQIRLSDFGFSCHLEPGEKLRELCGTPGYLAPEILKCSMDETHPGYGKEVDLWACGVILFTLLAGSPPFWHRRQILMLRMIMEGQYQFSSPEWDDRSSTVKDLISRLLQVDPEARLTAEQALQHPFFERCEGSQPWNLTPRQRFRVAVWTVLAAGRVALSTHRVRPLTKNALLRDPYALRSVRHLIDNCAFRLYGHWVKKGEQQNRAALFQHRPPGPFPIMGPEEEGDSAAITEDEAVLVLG

[3] = target: panel of 255 wild-type kinases (Homo sapiens, UniProt P16591); settings: kinase FER; 1 µmol/L single concentration; read-out: %-inhibition at 1 µmol/L, FER
[4] = target: panel of 255 wild-type kinases (Homo sapiens, UniProt P42684); settings: ARG kinase assay; 1 µmol/L single concentration; read-out: %-inhibition ARG
[5] = target: panel of 255 wild-type kinases (Homo sapiens, UniProt P43405); settings: kinase SYK; 1 µmol/L single concentration; read-out: %-inhibition at 1 µmol/L, SYK
[6] = target: panel of 255 wild-type kinases (Homo sapiens, UniProt Q00526); settings: CDK3/CycE1 kinase assay; 1 µmol/L single concentration; read-out: %-inhibition CDK3/CycE1
[7] = target: T3, panel of 255 wild-type kinases (Homo sapiens, UniProt Q05513); settings: kinase PKCζ; 1 µmol/L single concentration; read-out: %-inhibition at 1 µmol/L, PKCζ
T3 sequence (Q05513 1-592): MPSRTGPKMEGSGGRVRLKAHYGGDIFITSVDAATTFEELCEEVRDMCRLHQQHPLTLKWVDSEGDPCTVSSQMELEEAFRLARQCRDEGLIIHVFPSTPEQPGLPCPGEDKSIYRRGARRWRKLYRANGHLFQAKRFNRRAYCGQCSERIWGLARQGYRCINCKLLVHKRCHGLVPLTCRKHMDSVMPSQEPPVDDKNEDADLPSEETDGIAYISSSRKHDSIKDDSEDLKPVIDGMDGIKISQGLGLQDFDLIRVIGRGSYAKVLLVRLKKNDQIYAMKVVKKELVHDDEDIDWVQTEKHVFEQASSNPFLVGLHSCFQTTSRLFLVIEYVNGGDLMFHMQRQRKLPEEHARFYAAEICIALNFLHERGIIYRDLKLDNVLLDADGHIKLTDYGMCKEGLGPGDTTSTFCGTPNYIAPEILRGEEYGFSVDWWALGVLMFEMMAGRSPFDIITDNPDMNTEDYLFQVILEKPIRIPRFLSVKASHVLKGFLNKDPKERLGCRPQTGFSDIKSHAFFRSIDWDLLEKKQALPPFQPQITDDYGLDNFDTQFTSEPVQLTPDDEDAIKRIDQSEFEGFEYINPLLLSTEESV

[8] = target: T4, panel of 255 wild-type kinases (Homo sapiens, UniProt Q08881); settings: kinase ITK; 1 µmol/L single concentration; read-out: %-inhibition at 1 µmol/L, ITK
T4 sequence (Q08881 1-620): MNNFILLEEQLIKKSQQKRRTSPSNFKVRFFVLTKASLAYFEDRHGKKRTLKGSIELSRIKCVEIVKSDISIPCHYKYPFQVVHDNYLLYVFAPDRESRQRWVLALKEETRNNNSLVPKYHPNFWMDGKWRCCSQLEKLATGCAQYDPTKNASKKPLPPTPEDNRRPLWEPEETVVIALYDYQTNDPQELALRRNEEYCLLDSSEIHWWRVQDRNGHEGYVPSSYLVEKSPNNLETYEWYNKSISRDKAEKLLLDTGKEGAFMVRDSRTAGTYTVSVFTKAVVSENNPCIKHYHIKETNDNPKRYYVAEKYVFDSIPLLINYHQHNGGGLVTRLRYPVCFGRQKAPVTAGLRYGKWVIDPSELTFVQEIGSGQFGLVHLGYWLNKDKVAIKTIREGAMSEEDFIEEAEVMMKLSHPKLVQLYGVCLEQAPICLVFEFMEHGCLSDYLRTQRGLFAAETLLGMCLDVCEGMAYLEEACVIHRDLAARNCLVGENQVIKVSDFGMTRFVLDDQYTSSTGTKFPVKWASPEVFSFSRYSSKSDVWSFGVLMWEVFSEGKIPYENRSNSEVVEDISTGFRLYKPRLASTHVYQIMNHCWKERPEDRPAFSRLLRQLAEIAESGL

[9] = target: panel of 255 wild-type kinases (Homo sapiens, UniProt Q16816); settings: kinase PHKG1; 1 µmol/L single concentration; read-out: %-inhibition at 1 µmol/L, PHKG1

inhibition at 1 µM [1] [%] | inhibition at 1 µM [2] [%] | inhibition at 1 µM [3] [%] | inhibition at 1 µM [4] [%] | inhibition at 1 µM [5] [%] | inhibition at 1 µM [6] [%] | inhibition at 1 µM [7] [%] | inhibition at 1 µM [8] [%] | inhibition at 1 µM [9] [%] | SMILES
0.0555 | 2.24 | 75 | 38 | 85 | 42 | -0.213 | 59 | 1.67 | CO[C@]1(C(=O)N[C@@H](C)c2ccc(-n3cc(F)cn3)nc2)CC[C@H](c2nc(C)cc(Nc3cc(C)[nH]n3)n2)CC1 [pralsetinib]
-6.33 | 6.5 | 35 | 10 | 7.5 | 3.49 | -1 | 79 | 8 | COc1ccc(CN2C3CC2CN(c2ccc(-c4cc(OCC(C)(C)O)cn5ncc(C#N)c45)cn2)C3)cn1 [selpercatinib]
-4 | 3.3 | 1.22 | 1.6 | -12 | -9 | 1 | 4.28 | -0.945 | Cn1cnc2c(F)c(Nc3ccc(Br)cc3Cl)c(C(=O)NOCCO)cc21 [selumetinib]
-0.0555 | -0.185 | 1.35 | 3.73 | -0.549 | -3.48 | -1.11 | 1.31 | -3.62 | Cc1cc(Nc2ncnc3ccc(NC4=NC(C)(C)CO4)cc23)ccc1Oc1ccn2ncnc2c1 [tucatinib]

SMILES | inhibition at 1 µM [1] [%] | inhibition at 1 µM [2] [%] | inhibition at 1 µM [3] [%] | inhibition at 1 µM [4] [%] | inhibition at 1 µM [5] [%] | inhibition at 1 µM [6] [%] | inhibition at 1 µM [7] [%] | inhibition at 1 µM [8] [%] | inhibition at 1 µM [9] [%]
CCn1c(=O)c(-c2cc(NC(=O)Nc3ccccc3)c(F)cc2Br)cc2cnc(NC)cc21 [ripretinib] | -0.186 | 1.5 | 32 | 56 | -8 | -4.34 | 15 | 1.24 | 1.76
C=CC(=O)N1CCC([C@@H]2CCNc3c(C(N)=O)c(-c4ccc(Oc5ccccc5)cc4)nn32)CC1 [zanubrutinib] | -6.43 | 4.22 | 0.0146 | -3.68 | -6.37 | 2.65 | 0.367 | 34 | 2.38
